Results from ChEMBL document CHEMBL1833797, “Microwave assisted synthesis and antimicrobial evaluation of new fused pyran derivatives bearing 2-morpholinoquinoline nucleus” (2011).
Values after ≈ are worked out from the molar mass of the structure shown.

Tests used:
[1] = tested on: Salmonella typhi; test: Antimicrobial activity against Salmonella typhi MTCC 98 for 24 hrs by microdilution method; assay type: functional, Salmonella enterica subsp. enterica serovar Typhi; conditions: Salmonella enterica, MTCC 98, 24 h
[2] = tested on: Clostridium tetani; test: Antimicrobial activity against Clostridium tetani MTCC 449 for 24 hrs by microdilution method; assay type: functional; conditions: MTCC 449, 24 h
[3] = tested on: Escherichia coli; test: Antimicrobial activity against Escherichia coli MTCC 443 for 24 hrs by microdilution method; assay type: functional; conditions: MTCC 443, 24 h
[4] = tested on: Aspergillus fumigatus; test: Antifungal activity against Aspergillus fumigatus MTCC 3008 for 48 hrs by microdilution method; assay type: functional
[5] = tested on: Candida albicans; test: Antifungal activity against Candida albicans MTCC 227 for 48 hrs by microdilution method; assay type: functional
[6] = tested on: Vibrio cholerae; test: Antimicrobial activity against Vibrio cholerae MTCC 3906 for 24 hrs by microdilution method; assay type: functional; conditions: MTCC 3906, 24 h
[7] = tested on: Streptococcus pneumoniae; test: Antimicrobial activity against Streptococcus pneumoniae MTCC 1936 for 24 hrs by microdilution method; assay type: functional; conditions: MTCC 1936, 24 h
[8] = tested on: Bacillus subtilis; test: Antimicrobial activity against Bacillus subtilis MTCC 441 for 24 hrs by microdilution method; assay type: functional; conditions: MTCC 441, 24 h

Compound | MIC [1] | MIC [2] | MIC [3] | MIC ([4]; MTCC 3008, 48 h) | MIC ([5]; MTCC 227, 48 h) | MIC [6] | MIC [7] | MIC [8] | MIC [4] | MIC [5]
COc1ccc2nc(N3CCOCC3)c(C3C(C#N)=C(N)OC4=C3C(=O)c3ccccc3C4=O)cc2c1 (stereo unspecified) | 200 µg/mL (≈ 404 µM) | 100 µg/mL (≈ 202 µM) | 100 µg/mL (≈ 202 µM) | 1000 µg/mL (≈ 2020 µM) | > 1000 µg/mL | 250 µg/mL (≈ 506 µM) | 200 µg/mL (≈ 404 µM) | 200 µg/mL (≈ 404 µM) |  | 
Cc1ccc2nc(N3CCOCC3)c(C3C(C#N)=C(N)Oc4cc(C)oc(=O)c43)cc2c1 (stereo unspecified) | 200 µg/mL (≈ 465 µM) | 200 µg/mL (≈ 465 µM) | 100 µg/mL (≈ 232 µM) | 200 µg/mL (≈ 465 µM) | 1000 µg/mL (≈ 2320 µM) | 200 µg/mL (≈ 465 µM) | 500 µg/mL (≈ 1160 µM) | 500 µg/mL (≈ 1160 µM) |  | 
N#CC1=C(N)OC2=C(C(=O)CCC2)C1c1cc2ccccc2nc1N1CCOCC1 (stereo unspecified) | 250 µg/mL (≈ 621 µM) | 250 µg/mL (≈ 621 µM) | 250 µg/mL (≈ 621 µM) | > 1000 µg/mL | 1000 µg/mL (≈ 2480 µM) | 250 µg/mL (≈ 621 µM) | 100 µg/mL (≈ 248 µM) | 100 µg/mL (≈ 248 µM) |  | 
Cc1ccc2nc(N3CCOCC3)c(C3C(C#N)=C(N)OC4=C3C(=O)c3ccccc3C4=O)cc2c1 (stereo unspecified) | 100 µg/mL (≈ 209 µM) | 250 µg/mL (≈ 522 µM) | 250 µg/mL (≈ 522 µM) | > 1000 µg/mL | > 1000 µg/mL | 250 µg/mL (≈ 522 µM) | 100 µg/mL (≈ 209 µM) | 200 µg/mL (≈ 418 µM) |  | 
O=C(O)c1cn(C2CC2)c2cc(N3CCNCC3)c(F)cc2c1=O [CIPROFLOXACIN] | 25 µg/mL (≈ 75.4 µM) |  | 25 µg/mL (≈ 75.4 µM) |  |  | 25 µg/mL (≈ 75.4 µM) | 50 µg/mL (≈ 151 µM) |  |  | 
CC1(C)CC(=O)C2=C(C1)OC(N)=C(C#N)C2c1cc2ccccc2nc1N1CCOCC1 (stereo unspecified) | 200 µg/mL (≈ 465 µM) | 250 µg/mL (≈ 581 µM) | 250 µg/mL (≈ 581 µM) | 1000 µg/mL (≈ 2320 µM) | 500 µg/mL (≈ 1160 µM) | 250 µg/mL (≈ 581 µM) | 500 µg/mL (≈ 1160 µM) | 200 µg/mL (≈ 465 µM) |  | 
N#CC1=C(N)Oc2cc(O)ccc2C1c1cc2ccccc2nc1N1CCOCC1 (stereo unspecified) | 200 µg/mL (≈ 499 µM) | 250 µg/mL (≈ 624 µM) | 100 µg/mL (≈ 250 µM) | > 1000 µg/mL | 1000 µg/mL (≈ 2500 µM) | 250 µg/mL (≈ 624 µM) | 250 µg/mL (≈ 624 µM) | 250 µg/mL (≈ 624 µM) |  | 
O=C(N[C@H](CO)[C@H](O)c1ccc([N+](=O)[O-])cc1)C(Cl)Cl [CHLORAMPHENICOL] | 50 µg/mL (≈ 155 µM) | 50 µg/mL (≈ 155 µM) | 50 µg/mL (≈ 155 µM) |  |  | 50 µg/mL (≈ 155 µM) | 50 µg/mL (≈ 155 µM) | 50 µg/mL (≈ 155 µM) |  | 
Cc1ccc2nc(N3CCOCC3)c(C3C(C#N)=C(N)OC4=C3C(=O)CC(C)(C)C4)cc2c1 (stereo unspecified) | 250 µg/mL (≈ 562 µM) | 500 µg/mL (≈ 1120 µM) | 200 µg/mL (≈ 450 µM) | 1000 µg/mL (≈ 2250 µM) | 250 µg/mL (≈ 562 µM) | 250 µg/mL (≈ 562 µM) | 25 µg/mL (≈ 56.2 µM) | 200 µg/mL (≈ 450 µM) |  | 
N#CC1=C(N)Oc2c(c(=O)oc3ccccc23)C1c1cc2ccccc2nc1N1CCOCC1 (stereo unspecified) | 100 µg/mL (≈ 221 µM) | 200 µg/mL (≈ 442 µM) | 200 µg/mL (≈ 442 µM) | 500 µg/mL (≈ 1110 µM) | 500 µg/mL (≈ 1110 µM) | 250 µg/mL (≈ 553 µM) | 250 µg/mL (≈ 553 µM) | 250 µg/mL (≈ 553 µM) |  | 
N#CC1=C(N)Oc2c(ccc3ccccc23)C1c1cc2ccccc2nc1N1CCOCC1 (stereo unspecified) | 500 µg/mL (≈ 1150 µM) | 250 µg/mL (≈ 575 µM) | 500 µg/mL (≈ 1150 µM) | > 1000 µg/mL | 500 µg/mL (≈ 1150 µM) | 500 µg/mL (≈ 1150 µM) | 500 µg/mL (≈ 1150 µM) | 250 µg/mL (≈ 575 µM) |  | 
NYSTATIN |  |  |  |  |  |  |  |  | 100 µg/mL | 100 µg/mL
Cc1ccc2nc(N3CCOCC3)c(C3C(C#N)=C(N)Oc4[nH]nc(C)c43)cc2c1 (stereo unspecified) | 250 µg/mL (≈ 621 µM) | 250 µg/mL (≈ 621 µM) | 200 µg/mL (≈ 497 µM) | 1000 µg/mL (≈ 2480 µM) | 1000 µg/mL (≈ 2480 µM) | 250 µg/mL (≈ 621 µM) | 200 µg/mL (≈ 497 µM) | 200 µg/mL (≈ 497 µM) |  | 
Cc1ccc2nc(N3CCOCC3)c(C3C(C#N)=C(N)Oc4c3c(=O)oc3ccccc43)cc2c1 (stereo unspecified) | 250 µg/mL (≈ 536 µM) | 250 µg/mL (≈ 536 µM) | 250 µg/mL (≈ 536 µM) | 500 µg/mL (≈ 1070 µM) | 500 µg/mL (≈ 1070 µM) | 12.5 µg/mL (≈ 26.8 µM) | 500 µg/mL (≈ 1070 µM) | 500 µg/mL (≈ 1070 µM) |  | 
CCn1cc(C(=O)O)c(=O)c2cc(F)c(N3CCNCC3)cc21 [NORFLOXACIN] | 10 µg/mL (≈ 31.3 µM) | 50 µg/mL (≈ 157 µM) | 10 µg/mL (≈ 31.3 µM) |  |  | 10 µg/mL (≈ 31.3 µM) | 10 µg/mL (≈ 31.3 µM) | 100 µg/mL (≈ 313 µM) |  | 
